Measurements from article PMC6052858 (Die Pharmazie, 2009).
Several values for one entry are separate records, joined by “and”; a condition that tells them apart may be missing. Equal entries are not always repeated. Where two headings read alike, the source gives them in different places.

Columns and labels:
[1] = with GFJ; cited from earlier work
[2] = Metabolic stability of diltiazem in rat liver S9 fraction; format: in vitro ADME
[3] = Transport of diltiazem mucosal to serosal, normal sac method, rat duodenum; format: in vitro ADME; conditions: rifampicin pretreatment
[4] = extensive presystemic metabolism; ref Kane et al. 2000; cited from earlier work
[5] = in vivo; conditions: male, Wistar, rat, po, 15 mg/kg
[6] = cited from earlier work
[7] = system: P-gp; conditions: chronic administration of GFJ; ref Varma 2005; cited from earlier work
[8] = multiple dose GFJ, listed as DTZ

SMILES: CCOC(=O)C1=C(COCCN)NC(C)=C(C(=O)OC)C1c1ccccc1Cl (stereo not drawn) [amlodipine]
- increase of Tmax [1]: 115%

SMILES: COc1ccc([C@@H]2Sc3ccccc3N(CCN(C)C)C(=O)[C@@H]2OC(C)=O)cc1 [Diltiazem, diltiazem]
- % metabolism of diltiazem ([2]; control rat liver S9, diltiazem alone 12.5 µM, 1 mg protein/ml, 37 °C, 0 min): 0%
- % metabolism of diltiazem ([2]; control rat liver S9, diltiazem alone, 5 min): 36.61%
- % metabolism of diltiazem ([2]; control rat liver S9, diltiazem alone, 10 min): 49.01%
- % metabolism of diltiazem ([2]; control rat liver S9, diltiazem alone, 20 min): 60.15%
- % metabolism of diltiazem ([2]; control rat liver S9, diltiazem alone, 30 min): 69.56%
- % metabolism of diltiazem ([2]; control rat liver S9, diltiazem alone, 40 min): 77.47%
- % metabolism of diltiazem ([2]; control rat liver S9, diltiazem alone, 60 min): 88.91%
- % metabolism of diltiazem ([2]; control rat liver S9, diltiazem alone, 60 min, listed as DTZ): 88.9%
- % metabolism of diltiazem ([2]; control rat liver S9, in presence of testosterone, 0 min): 0%
- % metabolism of diltiazem ([2]; control rat liver S9, in presence of testosterone, 5 min): 9.19%
- % metabolism of diltiazem ([2]; control rat liver S9, in presence of testosterone, 10 min): 16.32%
- % metabolism of diltiazem ([2]; control rat liver S9, in presence of testosterone, 20 min): 29.91%
- % metabolism of diltiazem ([2]; control rat liver S9, in presence of testosterone, 30 min): 35.67%
- % metabolism of diltiazem ([2]; control rat liver S9, in presence of testosterone, 40 min): 38.16%
- % metabolism of diltiazem ([2]; control rat liver S9, in presence of testosterone, 60 min): 41.25%
- % metabolism of diltiazem ([2]; liver S9 from rats treated with GFJ orally for 7 days, 0 min): 0%
- % metabolism of diltiazem ([2]; liver S9 from rats treated with GFJ orally for 7 days, 5 min): 12.79%
- % metabolism of diltiazem ([2]; liver S9 from rats treated with GFJ orally for 7 days, 10 min): 21.11%
- % metabolism of diltiazem ([2]; liver S9 from rats treated with GFJ orally for 7 days, 20 min): 28.49%
- % metabolism of diltiazem ([2]; liver S9 from rats treated with GFJ orally for 7 days, 30 min): 31.38%
- % metabolism of diltiazem ([2]; liver S9 from rats treated with GFJ orally for 7 days, 40 min): 40.76%
- % metabolism of diltiazem ([2]; liver S9 from rats treated with GFJ orally for 7 days, 60 min): 48.26%
- % metabolism of diltiazem ([2]; liver S9 from rats treated with GFJ orally for 7 days, 60 min, listed as DTZ): 48.3%
- Increase of mean cumulative efflux of diltiazem vs control [3]: 35.79%
- T1/2 (diltiazem 15 mg/kg p.o with single dose GFJ): 31.2 min
- AUC0–24 (AUC0–t), % inhibition (decrease) compared to control (multiple dose GFJ): 43.22%
- Cmax, % inhibition (decrease) compared to control (multiple dose GFJ): 66.09%
- T1/2, % change compared to control (footnote: % inhibition; text: increased) (multiple dose GFJ): 136.7%
- Tmax, % change compared to control (footnote: % inhibition; text: increased) (multiple dose GFJ): 437.5%
- AUC0–24 (AUC0–t), % inhibition (decrease) compared to control [8]: 43.2%
- AUC0–∞, % inhibition (decrease) compared to control [8]: 35.1%
- Cmax, % inhibition (decrease) compared to control [8]: 66.0% and 66.1%
- Tmax, % change compared to control (footnote: % inhibition; text: increased) [8]: 437.5%
- AUC0–24 (AUC0–t), % inhibition (decrease) compared to control (single dose GFJ): 1.26%
- AUC0–∞, % inhibition (decrease) compared to control (single dose GFJ): 17.98%
- Cmax, % inhibition (decrease) compared to control (single dose GFJ): 23.1%
- T1/2, % change compared to control (footnote: % inhibition) (single dose GFJ): 6.12%
- Tmax, % change compared to control (footnote: % inhibition) (single dose GFJ): 0%
- Cmax, % inhibition (decrease) compared to control (single dose GFJ, listed as DTZ): 23.14%
- T1/2, % change compared to control (footnote: % inhibition) (single dose GFJ, listed as DTZ): no statistically significant change
- Tmax, % change compared to control (footnote: % inhibition) (single dose GFJ, listed as DTZ): no change
- oral bioavailability [4]: 40–50%
- AUC(0-inf) ([5]; in vivo): 51.5 ng·h/mL
- Tmax ([5]; plasma): 4.8 min
- AUC(0-t) ([5]; plasma, AUC0–24, diltiazem 15 mg/kg p.o with water (control)): 43.6 ng·h/mL
- AUC(0-t) ([5]; plasma, AUC0–24, diltiazem 15 mg/kg p.o, multiple dose GFJ): 24.8 ng·h/mL
- AUC(0-inf) ([5]; plasma, AUC0–∞, diltiazem 15 mg/kg p.o with water (control)): 62.8 ng·h/mL
- AUC(0-inf) ([5]; plasma, AUC0–∞, diltiazem 15 mg/kg p.o, multiple dose GFJ): 33.7 ng·h/mL
- Cmax ([5]; plasma, Cmax, diltiazem 15 mg/kg p.o with water (control), n = 6): 121 ± 16.4 ng/mL
- half-life ([5]; plasma, T1/2, diltiazem 15 mg/kg p.o with water (control)): 29.4 min

SMILES: COC(=O)C1=C(C)NC(C)=C(C(=O)OC)C1c1ccccc1[N+](=O)[O-] [nifedipine]
- reduction of area under the curve ([6]; intraduodenal, GFJ administered concomitantly, ref Mohri et al. 2000): 50%
- increase of nifedipine levels ([6]; rats, long-term administration of GFJ, intraduodenally, ref Mohri et al. (2000)): approximately 1.62 times

SMILES: CC(=O)O[C@H]1C(=O)[C@@]2(C)[C@H]([C@H](OC(=O)c3ccccc3)[C@]3(O)C[C@H](OC(=O)[C@H](O)[C@@H](NC(=O)c4ccccc4)c4ccccc4)C(C)=C1C3(C)C)[C@]1(OC(C)=O)CO[C@@H]1C[C@@H]2O [paclitaxel]
- efflux ratio (ER) [7]: 20.8
